From patent US12661410B2, “Compounds for targeted degradation of RET” (C4 Therapeutics, Inc., priority 2020, dated 2026)
Residue numbers refer to the chain shown, from its start. Like-named read-outs stand apart in the source and are kept apart here.

Key:
RET(KD: 658-1114 G810R) = biological target: T1, RET(KD: 658-1114 G810R) (Homo sapiens, UniProt P07949, G810R); experiment: HiBiT-Degradation, RET G810R degradation assay (Nano-Glo HiBiT Lytic), 293T.165 cells; assay type: cell-based; details: for Emax / DC50: 6.0 hours
T1 construct: 658-1114; expressed in transfected cells; host or cells: 293T.165 (293T cells, generated in-house)
T1 sequence (P07949 658-1114 G810R): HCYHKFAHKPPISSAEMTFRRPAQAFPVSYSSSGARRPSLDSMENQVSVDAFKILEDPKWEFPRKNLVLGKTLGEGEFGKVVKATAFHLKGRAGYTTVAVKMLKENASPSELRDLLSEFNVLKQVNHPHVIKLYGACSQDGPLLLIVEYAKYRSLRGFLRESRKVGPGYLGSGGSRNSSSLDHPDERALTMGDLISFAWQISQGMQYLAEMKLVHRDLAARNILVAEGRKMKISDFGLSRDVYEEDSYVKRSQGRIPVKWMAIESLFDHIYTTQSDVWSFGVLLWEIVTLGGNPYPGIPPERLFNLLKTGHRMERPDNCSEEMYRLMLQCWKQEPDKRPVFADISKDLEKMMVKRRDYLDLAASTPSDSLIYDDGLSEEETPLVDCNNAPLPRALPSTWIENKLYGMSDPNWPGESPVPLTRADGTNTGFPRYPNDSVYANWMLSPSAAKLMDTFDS
In short: (§1)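 Engineered 293T cells carry a HiBiT tag on the RET kinase domain, either wild type (line 293T.144) or G810R (line 293T.165). Compounds act for 6 h across a 10 μM-top, half-log 11-point range. Lytic HiBiT luminescence gives remaining protein, fitted for DC50 and Emax.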

RET (658-1114) = biological target: T2, RET (658-1114) (Homo sapiens, UniProt P07949); experiment: HiBiT-Degradation, RET wild-type degradation assay (Nano-Glo HiBiT Lytic), 293T.144 cells; assay type: cell-based; details: for DC50 / Emax: 6.0 hours
T2 construct: 658-1114; expressed in transfected cells; host or cells: 293T.144 (293T cells, generated in-house)
T2 sequence (P07949 658-1114): T1 sequence (P07949 658-1114 G810R) with R153G
In short: as §1

[1] = % remaining protein, read-out: 293T.165 RET(KD: 658-1114 G810R) 6.0 hours (Emax)
[2] = half-maximal degradation concentration, read-out: 293T.165 RET(KD: 658-1114 G810R) 6.0 hours (DC50)
[3] = HiBiT-Degradation, read-out: 293T.165 RET(KD: 658-1114 G810R) 6.0 hours (DC50)
[4] = HiBiT-Degradation, read-out: 293T.144 RET (658-1114) 6.0 hours (DC50)
[5] = HiBiT-Degradation, read-out: 293T.144 RET (658-1114) 6.0 hours (Emax)
[6] = % remaining protein, read-out: 293T.144 RET (658-1114) 6.0 hours (Emax)
[7] = half-maximal degradation concentration, read-out: 293T.144 RET (658-1114) 6.0 hours (DC50)

Compound | Emax (RET(KD: 658-1114 G810R); [1]) | DC50 (RET(KD: 658-1114 G810R); [2]) | 293T.165 RET(KD: 658-1114 G810R) 6.0 hours (Emax) (RET(KD: 658-1114 G810R); HiBiT-Degradation) | 293T.165 RET(KD: 658-1114 G810R) 6.0 hours (IP) [nM] (RET(KD: 658-1114 G810R); HiBiT-Degradation) | DC50 (RET(KD: 658-1114 G810R); [3]) | 293T.144 RET (658-1114) 6.0 hours (IP) [nM] (RET (658-1114); HiBiT-Degradation) | DC50 (RET (658-1114); [4]) | Emax (RET (658-1114); [5]) | HiBiT-Degradation 293T.165 RET(KD: 658-1114 G810R) 6.0 hours (IP) [nM] (RET(KD: 658-1114 G810R); RET G810R) | DC50 (RET(KD: 658-1114 G810R); RET G810R, read-out: HiBiT-Degradation 293T.165 RET(KD: 658-1114 G810R) 6.0 hours (DC50)) | Emax (RET(KD: 658-1114 G810R); RET G810R, read-out: HiBiT-Degradation 293T.165 RET(KD: 658-1114 G810R) 6.0 hours (Emax)) | HiBiT-Degradation 293T.144 RET (658-1114) 6.0 hours (IP) [nM] (RET (658-1114); RET wild-type) | DC50 (RET (658-1114); RET wild-type, read-out: HiBiT-Degradation 293T.144 RET (658-1114) 6.0 hours (DC50)) | Emax (RET (658-1114); RET wild-type, read-out: HiBiT-Degradation 293T.144 RET (658-1114) 6.0 hours (Emax)) | 293T.165 RET(KD: 658-1114 G810R) 6.0 hours (IP) [nM] (RET(KD: 658-1114 G810R)) | 293T.144 RET (658-1114) 6.0 hours (IP) [nM] (RET (658-1114)) | Emax (RET (658-1114); [6]) | DC50 (RET (658-1114); [7])
N#Cc1cnn2cc(-c3ccc(N4CCN(C(=O)CN5CCC(c6ccc(NC7CCC(=O)NC7=O)cc6)CC5)CC4)cc3)cc(-c3ccc(N4C[C@H]5CC[C@@H](C4)O5)nc3)c12 (stereo partly drawn) [Compound 19, 4-(6-((1R,5S)-8—Oxa-3-azabicyclo[3.2.1]octan-3-yl)pyridin-3-yl)-6-(4-(4-(2-(4-(4-((2,6-dioxopiperidin-3-yl)amino)phenyl)piperidin-1-yl)acetyl)piperazin-1-yl)phenyl)pyrazolo[1,5-a]pyridine-3-carbonitrile] | < 50% | < 100 nM | +++ (<50% = +++) | ++++ (< 50 nM = ++++) | < 100 nM | ++++ (< 50 nM = ++++) | < 50 nM | < 30% | – | – | – | – | – | – | – | – | – | –
N#Cc1cnn2cc(-c3cnn([C@H]4CC[C@@H](N5CCN(c6ccc(NC7CCC(=O)NC7=O)cc6F)CC5)CC4)c3)nc(-c3ccc(N4CC5CC(C4)N5CC4CCC(F)(F)CC4)nc3)c12 (single isomer, unassigned) [Compound 178, 4-(6-(6-((4,4-Difluorocyclohexyl)methyl)-3,6-diazabicyclo[3.1.1]heptan-3-yl)pyridin-3-yl)-6-(1-((1s, 4s)-4-(4-(4-((2,6-dioxopiperidin-3-yl)amino)-2-fluorophenyl)piperazin-1-yl)cyclohexyl)-1H-pyrazol-4-yl)pyrazolo[1,5-a]pyrazine-3-carbonitrile] | < 30% | < 50 nM | – | – | – | – | – | – | – | – | – | – | – | – | ++++ (<50 nM = ++++) | ++++ (<50 nM = ++++) | < 30% | < 50 nM
N#Cc1cnn2cc(-c3cnn([C@H]4CC[C@@H](N5CCN(c6ccc(N[C@H]7CCC(=O)NC7=O)cc6F)CC5)CC4)c3)nc(-c3ccc(N4CC5CC(C4)N5C(=O)c4c(F)cccc4F)nc3)c12 (single isomer, unassigned) [Compound 171] | < 30% | < 50 nM | – | – | – | – | – | – | – | – | – | – | – | – | ++++ (<50 nM = ++++) | ++++ (<50 nM = ++++) | < 30% | < 50 nM
CCC1(C(=O)NC2CCC2)CCN(c2ccc(-c3cc(-c4cnn(C5CCN(C(=O)CN6CCC(c7ccc(NC8CCC(=O)NC8=O)cc7F)CC6)CC5)c4)cn4ncc(C#N)c34)cn2)CC1 (stereo not shown) [Compound 8, 1-(5-(3-Cyano-6-(1-(1-(2-(4-(4-((2,6-dioxopiperidin-3-yl)amino)-2-fluorophenyl)piperidin-1-yl)acetyl)piperidin-4-yl)-1H-pyrazol-4-yl)pyrazolo[1,5-a]pyridin-4-yl)pyridin-2-yl)-N-cyclobutyl-4-ethylpiperidine-4-carboxamide] | < 30% | < 50 nM | ++++ (< 30% = ++++) | ++++ (< 50 nM = ++++) | < 50 nM | ++++ (< 50 nM = ++++) | < 50 nM | < 30% | – | – | – | – | – | – | – | – | – | –
CCC1(C(=O)NC2CCC2)CCN(c2ccc(-c3nc(-c4cnn([C@H]5CC[C@H](N6CCC(c7ccc(NC8CCC(=O)NC8=O)cc7)CC6)CC5)c4)cn4ncc(C#N)c34)cn2)CC1 (single isomer, unassigned) [Compound 126, 1-(5-(3-cyano-6-(1-((1r, 4r)-4-(4-(4-((2,6-dioxopiperidin-3-yl)amino)phenyl)piperidin-1-yl)cyclohexyl)-1H-pyrazol-4-yl)pyrazolo[1,5-a]pyrazin-4-yl)pyridin-2-yl)-N-cyclobutyl-4-ethylpiperidine-4-carboxamide] | < 30% | < 50 nM | – | – | – | – | – | – | – | – | – | – | – | – | ++++ (<50 nM = ++++) | ++++ (<50 nM = ++++) | < 30% | < 50 nM
CCC1(C(=O)NC(C)C)CCN(c2ccc(-c3cc(-c4cnn(C5CCN(C(=O)CN6CCC(c7ccc(NC8CCC(=O)NC8=O)cc7F)CC6)CC5)c4)cn4ncc(C#N)c34)cn2)CC1 (stereo not shown) [Compound 3, 1-(5-(3-Cyano-6-(1-(1-(2-(4-(4-((2,6-dioxopiperidin-3-yl)amino)-2-fluorophenyl)piperidin-1-yl)acetyl)piperidin-4-yl)-1H-pyrazol-4-yl)pyrazolo[1,5-a]pyridin-4-yl)pyridin-2-yl)-4-ethyl-N-isopropylpiperidine-4-carboxamide] | < 30% | < 50 nM | ++++ (< 30% = ++++) | ++++ (< 50 nM = ++++) | < 50 nM | ++++ (< 50 nM = ++++) | < 50 nM | < 30% | – | – | – | – | – | – | – | – | – | –

Second part, led by results:

Emax (RET(KD: 658-1114 G810R); [1]) | DC50 (RET(KD: 658-1114 G810R); [2]) | 293T.165 RET(KD: 658-1114 G810R) 6.0 hours (Emax) (RET(KD: 658-1114 G810R); HiBiT-Degradation) | 293T.165 RET(KD: 658-1114 G810R) 6.0 hours (IP) [nM] (RET(KD: 658-1114 G810R); HiBiT-Degradation) | DC50 (RET(KD: 658-1114 G810R); [3]) | 293T.144 RET (658-1114) 6.0 hours (IP) [nM] (RET (658-1114); HiBiT-Degradation) | DC50 (RET (658-1114); [4]) | Emax (RET (658-1114); [5]) | HiBiT-Degradation 293T.165 RET(KD: 658-1114 G810R) 6.0 hours (IP) [nM] (RET(KD: 658-1114 G810R); RET G810R) | DC50 (RET(KD: 658-1114 G810R); RET G810R, read-out: HiBiT-Degradation 293T.165 RET(KD: 658-1114 G810R) 6.0 hours (DC50)) | Emax (RET(KD: 658-1114 G810R); RET G810R, read-out: HiBiT-Degradation 293T.165 RET(KD: 658-1114 G810R) 6.0 hours (Emax)) | HiBiT-Degradation 293T.144 RET (658-1114) 6.0 hours (IP) [nM] (RET (658-1114); RET wild-type) | DC50 (RET (658-1114); RET wild-type, read-out: HiBiT-Degradation 293T.144 RET (658-1114) 6.0 hours (DC50)) | Emax (RET (658-1114); RET wild-type, read-out: HiBiT-Degradation 293T.144 RET (658-1114) 6.0 hours (Emax)) | Compound | 293T.165 RET(KD: 658-1114 G810R) 6.0 hours (IP) [nM] (RET(KD: 658-1114 G810R)) | 293T.144 RET (658-1114) 6.0 hours (IP) [nM] (RET (658-1114)) | Emax (RET (658-1114); [6]) | DC50 (RET (658-1114); [7])
< 30% | < 100 nM | – | – | – | – | – | – | ++++ (< 50 nM = ++++) | < 100 nM | < 30% | ++++ (< 50 nM = ++++) | < 50 nM | < 30% | CCC1(C(=O)NC(C)C)CCN(c2ccc(-c3nc(-c4cnn(CC5CCN(C(=O)CC6(O)CCN(c7ccc(NC8CCC(=O)NC8=O)cc7F)CC6)CC5)c4)cn4ncc(C#N)c34)cn2)CC1 (stereo not shown) [Compound 84, 1-[5-[3-cyano-6-[1-[[1-[2-[1-[4-[(2,6-dioxo-3-piperidyl)amino]-2-fluoro-phenyl]-4-hydroxy-4-piperidyl]acetyl]-4-piperidyl]methyl]pyrazol-4-yl]pyrazolo[1,5-a]pyrazin-4-yl]-2-pyridyl]-4-ethyl-N-isopropyl-piperidine-4-carboxamide] | – | – | – | –
< 30% | < 50 nM | – | – | – | – | – | – | – | – | – | – | – | – | CCC1(C(=O)NC(C)(C)C)CCN(c2ccc(-c3nc(-c4cnn(C5CCN(C(=O)CC6(O)CCN(c7ccc(NC8CCC(=O)NC8=O)cc7Cl)CC6)CC5)c4)cn4ncc(C#N)c34)cn2)CC1 (stereo not shown) [Compound 102, N-tert-butyl-1-[5-[6-[1-[1-[2-[1-[2-chloro-4-[(2,6-dioxo-3-piperidyl)amino]phenyl]-4-hydroxy-4-piperidyl]acetyl]-4-piperidyl]pyrazol-4-yl]-3-cyano-pyrazolo[1,5-a]pyrazin-4-yl]-2-pyridyl]-4-ethyl-piperidine-4-carboxamide] | ++++ (<50 nM = ++++) | ++++ (<50 nM = ++++) | < 30% | < 50 nM
< 50% | < 50 nM | +++ (<50% = +++) | ++++ (< 50 nM = ++++) | < 50 nM | ++++ (< 50 nM = ++++) | < 50 nM | < 30% | – | – | – | – | – | – | CCC1(C(=O)NC(C)C)CCN(c2ccc(-c3nc(-c4cnn(C5CCN(C(=O)CN6CCC(c7ccc(NC8CCC(=O)NC8=O)cc7F)CC6)CC5)c4)cn4ncc(C#N)c34)cn2)CC1 (stereo not shown) [Compound 53, 1-[5-[3-cyano-6-[1-[1-[2-[4-[4-[(2,6-dioxo-3-piperidyl)amino]-2-fluoro-phenyl]-1-piperidyl]acetyl]-4-piperidyl]pyrazol-4-yl]pyrazolo[1,5-a]pyrazin-4-yl]-2-pyridyl]-4-ethyl-N-isopropyl-piperidine-4-carboxamide] | – | – | – | –
